Laboratory results as given in US9668960B2, “Methods useful in studying or modulating skin or hair pigmentation, plant extracts for use in compositions and cosmetic care method” (L V M H RECHERCHE, priority 2008, dated 2017).

Experiments:
[1] = test system: Normal human epidermal melanocytes (F52; p5); test: Melanin assay (melanogenesis) in normal pigmented human melanocytes; type: cell-based; settings: 72 h; for Changes in melanin levels, F52 EM % change: L-18 0.001%, L-19 1%, L-20 0.5%, L-21 10 μg/ml, L-22 1%, L-23 0.05 μg/ml, IBMX 100 μM, NH4Cl 100 μM, niacinamide 10 μM, vs basal; for Melanin content, F52 EM (pg/cell): same doses as E1, basal 35.63
Protocol: Cells were then washed 3-times with sterile PBS and supplemented with 350 μl of either fresh serum-free RPMI medium (melanoma cells) or starved serum-free and BPE-free melanocyte medium (EM) and incubated at 37° C. and 5% CO2 for 24 h. Cells were then washed with sterile PBS 3-times and incubated with IBMX 1×10^-4 M at 37° C. and 5% CO2 for 12, 24, and 72 h. Cells were then gently washed 3-times with sterile PBS and fixed in ice-cold methanol for 10 minutes at -20° C. Slides were stored at -20° C. until immunocytochemistry was performed. […] The melanin standards were pipetted into a 96 well plate to produce a calibration curve for the assessment of melanin content in the test samples. 400 μl of 1 M NaOH was added to each cell pellet and dissolved on a heat block (100° C.) for 15 minutes. The pellets were vortexed vigorously and the solubilized pellet was pipetted into the same 96-well plate. The optical densities of the sample were read at […] on a DYNEX REVELATION 4.02 program. Melanin content of each test sample was read from the calibration curve. […] In addition IBMX and NH4Cl (positive melanocytic modulators) and niacinamide (negative modulator) were used as controls. Visible change was not particularly evident in normal melanocyte due to their already high basal melanin levels (FIG. 1). By contrast, visible change was evident in melanoma cells basal melanin levels were low (FIG. 2). […] Normal human epidermal melanocytes (Female-52; p5) were treated for 72 h with L-18 (0.001%), L-19 (1%), L-20 (0.5%), L-21 (10 μg/ml), L-22 (1%) and L-23 (0.05 μg/ml). Controls: Melanocytic modulators: IBMX (100 μM), NH4Cl (100 μM), and niacinamide (10 μM). (A) Melanin content was determined spectro-photometrically (475 nm) after sodium hydroxide solubilise (B) Visible change was not particularly evident in these cells due to their already high basal melanin levels. Results were expressed as change in melanin content (pg/cell) compared to unstimulated control levels. Means are ±SEM of 3 independent experiments with *P<0.05, **P<0.01, ***P<0.001. NS-Not Significant

[2] = test system: FM55 melanoma cells; test: Melanin assay (melanogenesis) in moderately-pigmented FM55 melanoma; type: cell-based, human; settings: 72 h; for Changes in melanin levels, FM55 % change: L-18 0.001%, L-19 1%, L-20 0.5%, L-21 10 μg/ml, L-22 1%, L-23 0.05 μg/ml, IBMX 100 μM, NH4Cl 100 μM, niacinamide 10 μM, vs basal; for Melanin content, FM55 (pg/cell): same doses as E3, basal 9.92
Protocol: Cells were then washed 3-times with sterile PBS and supplemented with 350 μl of either fresh serum-free RPMI medium (melanoma cells) or starved serum-free and BPE-free melanocyte medium (EM) and incubated at 37° C. and 5% CO2 for 24 h. Cells were then washed with sterile PBS 3-times and incubated with IBMX 1×10^-4 M at 37° C. and 5% CO2 for 12, 24, and 72 h. Cells were then gently washed 3-times with sterile PBS and fixed in ice-cold methanol for 10 minutes at -20° C. Slides were stored at -20° C. until immunocytochemistry was performed. […] The melanin standards were pipetted into a 96 well plate to produce a calibration curve for the assessment of melanin content in the test samples. 400 μl of 1 M NaOH was added to each cell pellet and dissolved on a heat block (100° C.) for 15 minutes. The pellets were vortexed vigorously and the solubilized pellet was pipetted into the same 96-well plate. The optical densities of the sample were read at […] on a DYNEX REVELATION 4.02 program. Melanin content of each test sample was read from the calibration curve. […] In addition IBMX and NH4Cl (positive melanocytic modulators) and niacinamide (negative modulator) were used as controls. […] Controls: Melanocytic modulators: IBMX (100 μM), NH4Cl (100 μM), and niacinamide (10 μM). (A) Melanin content was determined spectrophotometrically (475 nm) after sodium hydroxide solubilisation. […] (B). Results were expressed as the change in melanin content (pg/cell) compared to unstimulated control levels. Means are ±SEM of 3 independent experiments with *P<0.05, **P<0.01, ***P<0.001.

[3] = test system: tyrosinase; test: Tyrosinase activity in normal human melanocyte and keratinocyte co-culture (EM:KC); type: cell-based; settings: 72 h; for % Change in EM Tyrosinase Activity of stimulated EM vs. stimulated EM-EK) level (i.e. 12.16): co-culture versus monoculture under the same stimulus; for % Change in EM Tyrosinase Activity vs. Basal EM level (i.e. 0), EM-EK: matched EM-EK co-culture (F52), L-18 0.001%, L-23 0.05 μg/ml, IBMX 100 μM, niacinamide 10 μM, basal co-culture +12.16
Protocol: The cells were prepared for SDS-PAGE and transblotted onto PVDF membranes. 70 μg of un-reduced protein extract without boiling was pipetted into the appropriate wells of 8% SDS-PAGE gels. […] The L-DOPA reaction was stopped by washing the membrane in distilled water and the membrane was scanned. […] Normal human epidermal melanocyte culture (Female-52; p5) and matched co-culture […] MC-KC were treated for 72 h with L-18 (0.001%), L-23 (0.05 μg/ml). Controls: Melanocytic modulators: IBMX (100 μM), and niacinamide (10 μM). Negative control lane: Keratinocytes only (A) Protein extracts were electroblotted and membranes stained with L-DOPA for the estimation of tyrosinase activity. (B) Densitometric scanning of band intensities and values were expressed as the fold increase compared to unstimulated control levels. Means are ±SEM of 3 independent experiments with *P<0.05, **P<0.01, ***P<0.001.

[4] = test system: tyrosinase; test: DOPA oxidase detection for tyrosinase activity in pigmented normal human melanocytes; type: cell-based; settings: 72 h; for Changes in tyrosinase activity, F52 EMc % change / % Change in EM Tyrosinase Activity vs. Basal EM level (i.e. 0), EM: L-18 0.001%, L-23 0.05 μg/ml, IBMX 100 μM, niacinamide 10 μM; for Changes in tyrosinase activity, F52 EMc % change: L-19 1%, L-20 0.5%, L-21 10 μg/ml, L-22 1%, NH4Cl 100 μM, vs basal; for % Change in EM Tyrosinase Activity vs. Basal EM level (i.e. 0), EM: EM monoculture (F52)
Protocol: The cells were prepared for SDS-PAGE and transblotted onto PVDF membranes. 70 μg of un-reduced protein extract without boiling was pipetted into the appropriate wells of 8% SDS-PAGE gels. […] The L-DOPA reaction was stopped by washing the membrane in distilled water and the membrane was scanned. […] In addition IBMX and NH4Cl (positive melanocytic modulators) and niacinamide (negative modulator) were used as controls. […] Normal human epidermal melanocytes (Female-52; p5) were treated for 72 h with L-18 (0.001%), L-19 (1%), L-20 (0.5%), L-21 (10 μg/ml), LVMH-22 (1%) and L-23 (0.05 μg/ml). Controls: Melanocytic modulators: IBMX (100 μM), NH4Cl (100 μM), and niacinamide (10 μM). (A) Protein extracts were electroblotted and membranes stained with L-DOPA for the estimation of tyrosinase activity.

SMILES	Changes in melanin levels, F52 EM % change [1]	Melanin content, F52 EM (pg/cell) [1]	Changes in melanin levels, FM55 % change [2]	Melanin content, FM55 (pg/cell) [2]	% Change in EM Tyrosinase Activity of stimulated EM vs. stimulated EM-EK) level (i.e. 12.16) [3]	% Change in EM Tyrosinase Activity vs. Basal EM level (i.e. 0), EM-EK [3]	Changes in tyrosinase activity, F52 EMc % change [4]	% Change in EM Tyrosinase Activity vs. Basal EM level (i.e. 0), EM [4]	effect on melanin content compared with basal levels ([2]; FM55 melanoma cells, doses as E3)	effect on tyrosinase (dopa oxidase) activity compared with basal levels ([4]; normal melanocytes (EM), doses as E5)
NC(=O)c1cccnc1 [niacinamide]	−4.01%	(34.2) pg/cell	−5.94%	(9.33) pg/cell	−18.84%	−20.50%	−4.58%	−2.12%		
CC(C)Cn1c(=O)n(C)c(=O)c2[nH]cnc21 [IBMX]	+74.57%	(62.2) pg/cell	+250.8%	(34.8) pg/cell	+23.57%	+93.41%	+72.47%	+56.51%	visible increases in melanogenesis	dramatic increase in dopa oxidase activity of tyrosinase
